This note sets out measurements from patent publication US20260109707A1, “HETEROBIFUNCTIONAL COMPOUNDS AND METHODS OF TREATING DISEASE” (Halda Therapeutics OpCo. Inc., priority 2022, published 2026).

Assay [1] relates to T-Rex 293 cell line SC3 cells having increased expression of androgen receptor protein due to exposure to doxycycline. The assay can be described thus: Cellular growth inhibition assay, T-Rex 293 SC3 cells with doxycycline (CellTiter-Glo, 72 hours). In kind it is cell-based. As to conditions: 72 h, T-Rex 293 SC3 cells with increased androgen receptor expression due to doxycycline (10 ng/mL). Put shortly:
(§1)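 Doxycycline (10 ng/mL) was either included or omitted to toggle wild-type androgen receptor expression in SC3 cells, a T-Rex 293 clone, grown in stripped-serum, phenol red-free medium. After 72 hours with compound, viable cells were quantified by CellTiter-Glo 2.0.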
A general note: Cellular ATP, detected with luciferase, serves as a proxy for viable cell number.

Assay [2] concerns T-Rex 293 cell line SC3 cells lacking increased expression of androgen receptor protein. The assay can be described thus: Cellular growth inhibition assay, T-Rex 293 SC3 cells without doxycycline (CellTiter-Glo, 72 hours). As to conditions: 72 h, T-Rex 293 cell line SC3 cells not exposed to doxycycline (lacking increased androgen receptor expression). In kind it is cell-based. Put shortly: as §1

In another assay the test system is VCaP cells. The assay can be described thus: Cellular growth inhibition assay for VCaP cells (CellTiter-Glo, 72 hours). In kind it is cell-based, human. Conditions: Homo sapiens, VCaP, 72 h. The essentials:
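Luminescent viability signal after 72 h of compound exposure gave GI50 values by four-parameter nonlinear regression. Compounds were added in 0.5% DMSO to cells plated 24 h earlier at 5000/well in DMEM containing 10% FBS.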

The test system of another assay is T47D cells. As to the kind of experiment: Cellular growth inhibition assay for T47D cells (CellTiter-Glo, 72 hours). It is filed as cell-based, human. As to conditions: Homo sapiens, T47D, 72 h, 72 hours treatment. The essentials:
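Cells are plated at 3000/well and allowed 24 h before treatment. Test compound in medium containing 0.5% DMSO is then added, with DMSO-only wells as negative control, and plates are incubated 72 h at 37 °C. ATP luminescence (CellTiter-Glo 2.0) is then fitted to four parameters to derive GI50.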

`Cc1sc2c(c1C)C(c1ccc(CC3CN(CC4CCN(c5ccc(C(=O)N[C@H]6CC[C@H](Oc7ccc(C#N)c(Cl)c7)CC6)nn5)CC4)C3)cc1)=N[C@H](Cc1ncco1)c1nnc(C)n1-2` [I-114]: the GI50 was below 500 nM in assay [1], 1500 to 3000 nM in assay [2], 500 to 1500 nM with VCaP cells and 500 to 1500 nM in the assay on T47D cells.
As for `Cc1sc2c(c1C)C(c1ccc(CC3CN([C@@H]4CCN(c5ccc(C(=O)N[C@H]6CC[C@H](Oc7ccc(C#N)c(Cl)c7)CC6)nn5)C4)C3)cc1)=N[C@@H](Cc1ncco1)c1nnc(C)n1-2` [I-115], the GI50 (in assay [1]; in assay [2]; in the assay on VCaP cells; with T47D cells) was below 500 nM throughout.
With `Cc1sc2c(c1C)C(c1ccc(CC3CN([C@H]4CCN(c5ccc(C(=O)N[C@H]6CC[C@H](Oc7ccc(C#N)c(Cl)c7)CC6)nn5)C4)C3)cc1)=N[C@@H](Cc1ncco1)c1nnc(C)n1-2` [I-116], the GI50 (in assay [1]; in assay [2]; with VCaP cells; with T47D cells) was below 500 nM throughout.
Regarding `Cc1sc2c(c1C)C(c1ccc(C[C@H]3C[C@@]4(CCCN(c5ccc(C(=O)N[C@H]6CC[C@H](Oc7ccc(C#N)c(Cl)c7)CC6)nn5)C4)C3)cc1)=N[C@@H](Cc1ncco1)c1nnc(C)n1-2` [I-118], the concentration for 50% growth inhibition (GI50) in assay [1] is above 3000 nM; in assay [2], above 3000 nM; in the assay with VCaP cells it was 1500 to 3000 nM; in the assay with T47D cells it was 1500 to 3000 nM.
`Cc1sc2c(c1C)C(c1ccc(C[C@H]3C[C@]4(CCCN(c5ccc(C(=O)N[C@H]6CC[C@H](Oc7ccc(C#N)c(Cl)c7)CC6)nn5)C4)C3)cc1)=N[C@@H](Cc1ncco1)c1nnc(C)n1-2` [I-119]: the concentration for 50% growth inhibition (GI50) (in assay [1]; in assay [2]; in the assay with VCaP cells; with T47D cells) was below 500 nM in each case.
For the compound `Cc1sc2c(c1C)C(c1ccc(C[C@H]3C[C@@H](C4CCCN(c5ccc(C(=O)N[C@H]6CC[C@H](Oc7ccc(C#N)c(Cl)c7)CC6)nn5)C4)C3)cc1)=N[C@@H](Cc1ncco1)c1nnc(C)n1-2` (stereo partly shown) [I-120], the concentration for 50% growth inhibition (GI50) in assay [1] was below 500 nM; in assay [2] it was above 3000 nM; in the assay on VCaP cells, above 3000 nM; in the assay on T47D cells, below 500 nM.
In the case of `Cc1sc2c(c1C)C(c1ccc(C[C@H]3C[C@H](C4CCCN(c5ccc(C(=O)N[C@H]6CC[C@H](Oc7ccc(C#N)c(Cl)c7)CC6)nn5)C4)C3)cc1)=N[C@@H](Cc1ncco1)c1nnc(C)n1-2` (stereo partly shown) [I-121], the GI50 in assay [1] is 1500 to 3000 nM; in assay [2], above 3000 nM; with VCaP cells, above 3000 nM; with T47D cells, 1500 to 3000 nM.
On to `Cc1sc2c(c1C)C(c1ccc(CC3CC(C4CCCN(c5ccc(C(=O)N[C@H]6CC[C@H](Oc7ccc(C#N)c(Cl)c7)CC6)nn5)C4)C3)cc1)=N[C@@H](Cc1ncco1)c1nnc(C)n1-2` (stereo partly shown) [I-122], for which the GI50 (in assay [1]; in assay [2]; in the assay with VCaP cells; with T47D cells) was below 500 nM each time.
As for `Cc1sc2c(c1C)C(c1ccc(C[C@H]3CC[C@@]4(CCCN(c5ccc(C(=O)N[C@H]6CC[C@H](Oc7ccc(C#N)c(Cl)c7)CC6)nn5)C4)C3)cc1)=N[C@@H](Cc1ncco1)c1nnc(C)n1-2` [I-123], the GI50 in assay [1] was 1500 to 3000 nM; in assay [2] it was above 3000 nM; with VCaP cells it was 1500 to 3000 nM; with T47D cells, 1500 to 3000 nM.
As for `Cc1sc2c(c1C)C(c1ccc(C[C@H]3CC[C@]4(CCCN(c5ccc(C(=O)N[C@H]6CC[C@H](Oc7ccc(C#N)c(Cl)c7)CC6)nn5)C4)C3)cc1)=N[C@@H](Cc1ncco1)c1nnc(C)n1-2` [I-124], the GI50 (in assay [1]; in assay [2]; in the assay with VCaP cells; in the assay with T47D cells) was below 500 nM each time.
Consider `Cc1sc2c(c1C)C(c1ccc(C[C@@H]3CC[C@@]4(CCCN(c5ccc(C(=O)N[C@H]6CC[C@H](Oc7ccc(C#N)c(Cl)c7)CC6)nn5)C4)C3)cc1)=N[C@@H](Cc1ncco1)c1nnc(C)n1-2` [I-125], for which the 50% growth inhibitory concentration (GI50) (in assay [1]; in assay [2]; in the assay on VCaP cells; with T47D cells) was below 500 nM each time.
Regarding `Cc1sc2c(c1C)C(c1ccc(CCCN3CCCN(c4ccc(C(=O)N[C@H]5CC[C@H](Oc6ccc(C#N)c(Cl)c6)CC5)nn4)CC3)cc1)=N[C@@H](Cc1ncco1)c1nnc(C)n1-2` [I-126], the 50% growth inhibitory concentration (GI50) (in assay [1]; in assay [2]; with VCaP cells; with T47D cells) was below 500 nM in each case.
Regarding `Cc1sc2c(c1C)C(c1ccc(C[C@H]3C[C@H]([C@H]4CCCN(c5ccc(C(=O)N[C@H]6CC[C@H](Oc7ccc(C#N)c(Cl)c7)CC6)nn5)C4)C3)cc1)=N[C@@H](Cc1ncco1)c1nnc(C)n1-2` [I-131], the concentration for 50% growth inhibition (GI50) in assay [1] is below 500 nM; in assay [2], below 500 nM; in the assay with VCaP cells it was below 500 nM; with T47D cells, 500 to 1500 nM.
Turning to `Cc1sc2c(c1C)C(c1ccc(N3CC4(CCN(c5ccc(C(=O)NC6CCC(Oc7ccc(C#N)c(Cl)c7)CC6)nn5)CC4)C3)cc1)=N[C@@H](Cc1ncco1)c1nnc(C)n1-2` (stereo partly drawn) [I-132, N-[4-(3-chloro-4-cyano-phenoxy)cyclohexyl]-6-[2-[4-[(9S)-4,5,13-trimethyl-9-(oxazol-2-ylmethyl)-3-thia-1,8,11,12-tetrazatricyclo[8.3.0.02,6]trideca-2(6),4,7,10,12-pentaen-7-yl]phenyl]-2,7-diazaspiro[3.5]nonan-7-yl]pyridazine-3-carboxamide], the 50% growth inhibitory concentration (GI50) (in assay [1]; in assay [2]; in the assay on VCaP cells; in the assay on T47D cells) was below 500 nM in each case.
For the compound `Cc1sc2c(c1C)C(c1ccc(OC3CC4(CCN(c5ccc(C(=O)N[C@H]6CC[C@H](Oc7ccc(C#N)c(Cl)c7)CC6)nn5)CC4)C3)cc1)=N/C(=C/c1ncco1)c1nnc(C)n1-2` [I-135, N-[4-(3-chloro-4-cyano-phenoxy)cyclohexyl]-6-[2-[4-[(9E)-4,5,13-trimethyl-9-(oxazol-2-ylmethylene)-3-thia-1,8,11,12-tetrazatricyclo[8.3.0.02,6]trideca-2(6),4,7,10,12-pentaen-7-yl]phenoxy]-7-azaspiro[3.5]nonan-7-yl]pyridazine-3-carboxamide], the GI50 in assay [1] is below 500 nM; in assay [2], above 3000 nM; with VCaP cells it was below 500 nM; in the assay with T47D cells it was above 3000 nM.
For the compound `Cc1sc2c(c1C)C(c1ccc(C#CCC3CCN(c4ccc(C(=O)N[C@H]5CC[C@H](Oc6ccc(C#N)c(Cl)c6)CC5)nn4)CC3)cc1)=N[C@@H](Cc1ncco1)c1nnc(C)n1-2` [I-136, N-[4-(3-chloro-4-cyano-phenoxy)cyclohexyl]-6-[4-[3-[4-[(9S)-4,5,13-trimethyl-9-(oxazol-2-ylmethyl)-3-thia-1,8,11,12-tetrazatricyclo[8.3.0.02,6]trideca-2(6),4,7,10,12-pentaen-7-yl]phenyl]prop-2-ynyl]-1-piperidyl]pyridazine-3-carboxamide], the GI50 (in assay [1]; in assay [2]; in the assay with VCaP cells; in the assay with T47D cells) was below 500 nM in each case.
With `Cc1sc2c(c1C)C(c1ccc(C#CCC3CCN(c4ccc(C(=O)N[C@H]5CC[C@H](Oc6ccc(C#N)c(Cl)c6)CC5)nn4)CC3)cc1)=N[C@H](Cc1ncco1)c1nnc(C)n1-2` [I-137], the GI50 in assay [1] was below 500 nM; in assay [2] it was above 3000 nM; in the assay on VCaP cells, 500 to 1500 nM; in the assay with T47D cells, 1500 to 3000 nM.
In the case of `Cc1sc2c(c1C)C(c1ccc(C#CC3CC4(C3)CN(c3ccc(C(=O)N[C@H]5CC[C@H](Oc6ccc(C#N)c(Cl)c6)CC5)nn3)C4)cc1)=N[C@@H](Cc1ncco1)c1nnc(C)n1-2` [I-138], the concentration for 50% growth inhibition (GI50) (in assay [1]; in assay [2]; with VCaP cells; in the assay with T47D cells) was below 500 nM throughout.
Regarding `Cc1sc2c(c1C)C(c1ccc(C#CC3CC4(CCN(c5ccc(C(=O)N[C@H]6CC[C@H](Oc7ccc(C#N)c(Cl)c7)CC6)nn5)CC4)C3)cc1)=N[C@@H](Cc1ncco1)c1nnc(C)n1-2` [I-139], the GI50 (in assay [1]; in assay [2]; in the assay on VCaP cells; in the assay on T47D cells) was below 500 nM in each case.
Turning to `Cc1sc2c(c1C)C(c1ccc(C#CCN3[C@H](C)CN(c4ccc(C(=O)N[C@H]5CC[C@H](Oc6ccc(C#N)c(Cl)c6)CC5)nn4)C[C@@H]3C)cc1)=N[C@@H](Cc1ncco1)c1nnc(C)n1-2` [I-140], the GI50 (in assay [1]; in assay [2]; in the assay on VCaP cells; in the assay with T47D cells) was below 500 nM in each case.
Regarding `Cc1sc2c(c1C)C(c1ccc(C=C3CC4(CCCN(c5ccc(C(=O)NC6CCC(Oc7ccc(C#N)c(Cl)c7)CC6)nn5)C4)C3)cc1)=N[C@@H](Cc1ncco1)c1nnc(C)n1-2` (stereo partly drawn) [I-142, N-[4-(3-chloro-4-cyano-phenoxy)cyclohexyl]-6-[2-[[4-[(9S)-4,5,13-trimethyl-9-(oxazol-2-ylmethyl)-3-thia-1,8,11,12-tetrazatricyclo[8.3.0.02,6]trideca-2(6),4,7,10,12-pentaen-7-yl]phenyl]methylene]-6-azaspiro[3.5]nonan-6-yl]pyridazine-3-carboxamide], the GI50 (in assay [1]; in assay [2]; in the assay on VCaP cells; in the assay with T47D cells) was below 500 nM each time.
Turning to `Cc1sc2c(c1C)C(c1ccc(C3CC3C3CC4(CCN(c5ccc(C(=O)N[C@H]6CC[C@H](Oc7ccc(C#N)c(Cl)c7)CC6)nn5)CC4)C3)cc1)=N[C@@H](Cc1ncco1)c1nnc(C)n1-2` (stereo partly shown) [I-200], the GI50 (in assay [1]; in assay [2]; in the assay with VCaP cells; in the assay with T47D cells) was below 500 nM throughout.

A word on the GI50: it is the concentration giving 50% growth inhibition.
